Drawing on patent US20240165244A1 (Prelude Therapeutics Incorporated, priority 2022, published 2024), this text covers DC50 and Dmax for 11 compounds.

In assay [1] the target is T1, SMARCA4 (Homo sapiens, UniProt P51532).
T1 construct: SMARCA4-HiBiT knock-in Hela monoclonal cell (CS3023226); host or cells: HeLa monoclonal cells with heterozygous HiBiT knock-in at the endogenous SMARCA4 locus
Kind of assay: SMARCA4 HiBiT degradation assay in HeLa cells. Format: cell-based. Particulars: 18 hours, highest concentration 10 μM. As to the method: (§1) SMARCA2 HiBiT and SMARCA4 HiBiT Degradation Assay
HiBiT peptide knock-in of SMARCA2 in LgBiT expressing HEK293T cells was performed by CRISPR-mediated tagging system as described Promega. […] SMARCA2-HiBiT knock-in Hela monoclonal cell (CS302366) and SMARCA4-HiBiT knock-in Hela monoclonal cell (CS3023226) were purchased from Promega.
(§2) SMARCA2 HiBiT and SMARCA4 HiBiT Degradation Assay in HeLa Cells
Remove appropriate volume of resuspended cells from culture flask to accommodate 2500 cells/well @ 20 μL/well. […] Spin down at 1000 rpm for 5 min using tabletop centrifuge (SPINCHRON 15, Beckman).
Dispense test compounds onto plates using digital liquid dispenser (D300E, Tecan). Incubate plates in humidified tissue culture incubator @37° C. for 18 hours. […] Raw data files and compound information reports are swept into centralized data lake and deconvoluted using automated scripts designed by TetraScience, Inc. Data analysis, curve-fitting and reporting done in Dotmatics Informatics Suite using Screening Ultra module.

Assay [2] deals with T2, SMARCA2 (Homo sapiens, UniProt P51531).
T2 construct: SMARCA2-HiBiT knock-in Hela monoclonal cell (CS302366); host or cells: HeLa monoclonal cells with heterozygous HiBiT knock-in at the endogenous SMARCA2 locus
In words: SMARCA2 HiBiT degradation assay in HeLa cells. The assay is classed as cell-based. Particulars: 18 hours, highest concentration 10 μM. The procedure: as §1
HiBiT peptide knock-in of SMARCA2 in LgBiT expressing HEK293T cells was performed by CRISPR-mediated tagging system as described Promega. The homozygous HiBiT knock-in on c-terminus SMARCA2 was confirmed by sanger sequence. SMARCA2-HiBiT knock-in Hela monoclonal cell (CS302366) and SMARCA4-HiBiT knock-in Hela monoclonal cell (CS3023226) were purchased from Promega. The heterozygous HiBiT-knock-in was confirmed by sanger sequence in both SMARCA2-HiBiT and SMARCA4-HiBiT monoclonal cells.
as §2
Dispense 10 ul aliquot of prepared Hela-SMARCA2-HiBiT or Hela-SMARCA4-HiBiT cells (1:1 ratio of cells:Trypan Blue (#1450013, Bio-Rad)) onto cell counting slide (#145-0011, Bio-Rad) and obtain cell density and cell viability using cell counter (TC20, Bio-Rad). Remove appropriate volume of resuspended cells from culture flask to accommodate 2500 cells/well @ 20 μL/well. Transfer Hela-HiBiT cells to 50 mL conical (#430290, Corning). Spin down at 1000 rpm for 5 min using tabletop centrifuge (SPINCHRON 15, Beckman). Discard supernatant and resuspend cell pellet in modified EMEM (#30-2003, ATCC) cell culture media containing 10% FBS (F2422-500ML, Sigma), and 1× Penicillin/Streptomycin ([…]) (30-002-CI, Corning) to a cell density of 125,000 cells/mL. Dispense 20 μLof resuspended Hela-HiBit cells per well in 384-well TC treated plate (#12-565-343, Thermo Scientific) using standard cassette (#50950372, Thermo Scientific) on Multidrop Combi (#5840310, Thermo Scientific) inside laminar flow cabinet.
Compounds were dissolved in DMSO to make 10 mM stock and 3-fold series dilutions were further conducted keeping the highest concentration 10 μM. Dispense test compounds onto plates using digital liquid dispenser (D300E, Tecan). Incubate plates in humidified tissue culture incubator @37° C. for 18 hours. Add 20 μL of prepared Nano-Glo® HiBiT Lytic detection buffer (N3050, Promega) to each well of 384-well plate using small tube cassette (#24073295, Thermo Scientific) on Multidrop Combi, incubate @ RT for 30-60 min. Read plates on microplate reader (Envision 2105, PerkinElmer) using 384 well Ultra-Sensitive luminescence mode. Raw data files and compound information reports are swept into centralized data lake and deconvoluted using automated scripts designed by TetraScience, Inc. Data analysis, curve-fitting and reporting done in Dotmatics Informatics Suite using Screening Ultra module.
Background: The HiBiT peptide binds its large partner to form an active luciferase.

T1 sequence (P51532 whole entry): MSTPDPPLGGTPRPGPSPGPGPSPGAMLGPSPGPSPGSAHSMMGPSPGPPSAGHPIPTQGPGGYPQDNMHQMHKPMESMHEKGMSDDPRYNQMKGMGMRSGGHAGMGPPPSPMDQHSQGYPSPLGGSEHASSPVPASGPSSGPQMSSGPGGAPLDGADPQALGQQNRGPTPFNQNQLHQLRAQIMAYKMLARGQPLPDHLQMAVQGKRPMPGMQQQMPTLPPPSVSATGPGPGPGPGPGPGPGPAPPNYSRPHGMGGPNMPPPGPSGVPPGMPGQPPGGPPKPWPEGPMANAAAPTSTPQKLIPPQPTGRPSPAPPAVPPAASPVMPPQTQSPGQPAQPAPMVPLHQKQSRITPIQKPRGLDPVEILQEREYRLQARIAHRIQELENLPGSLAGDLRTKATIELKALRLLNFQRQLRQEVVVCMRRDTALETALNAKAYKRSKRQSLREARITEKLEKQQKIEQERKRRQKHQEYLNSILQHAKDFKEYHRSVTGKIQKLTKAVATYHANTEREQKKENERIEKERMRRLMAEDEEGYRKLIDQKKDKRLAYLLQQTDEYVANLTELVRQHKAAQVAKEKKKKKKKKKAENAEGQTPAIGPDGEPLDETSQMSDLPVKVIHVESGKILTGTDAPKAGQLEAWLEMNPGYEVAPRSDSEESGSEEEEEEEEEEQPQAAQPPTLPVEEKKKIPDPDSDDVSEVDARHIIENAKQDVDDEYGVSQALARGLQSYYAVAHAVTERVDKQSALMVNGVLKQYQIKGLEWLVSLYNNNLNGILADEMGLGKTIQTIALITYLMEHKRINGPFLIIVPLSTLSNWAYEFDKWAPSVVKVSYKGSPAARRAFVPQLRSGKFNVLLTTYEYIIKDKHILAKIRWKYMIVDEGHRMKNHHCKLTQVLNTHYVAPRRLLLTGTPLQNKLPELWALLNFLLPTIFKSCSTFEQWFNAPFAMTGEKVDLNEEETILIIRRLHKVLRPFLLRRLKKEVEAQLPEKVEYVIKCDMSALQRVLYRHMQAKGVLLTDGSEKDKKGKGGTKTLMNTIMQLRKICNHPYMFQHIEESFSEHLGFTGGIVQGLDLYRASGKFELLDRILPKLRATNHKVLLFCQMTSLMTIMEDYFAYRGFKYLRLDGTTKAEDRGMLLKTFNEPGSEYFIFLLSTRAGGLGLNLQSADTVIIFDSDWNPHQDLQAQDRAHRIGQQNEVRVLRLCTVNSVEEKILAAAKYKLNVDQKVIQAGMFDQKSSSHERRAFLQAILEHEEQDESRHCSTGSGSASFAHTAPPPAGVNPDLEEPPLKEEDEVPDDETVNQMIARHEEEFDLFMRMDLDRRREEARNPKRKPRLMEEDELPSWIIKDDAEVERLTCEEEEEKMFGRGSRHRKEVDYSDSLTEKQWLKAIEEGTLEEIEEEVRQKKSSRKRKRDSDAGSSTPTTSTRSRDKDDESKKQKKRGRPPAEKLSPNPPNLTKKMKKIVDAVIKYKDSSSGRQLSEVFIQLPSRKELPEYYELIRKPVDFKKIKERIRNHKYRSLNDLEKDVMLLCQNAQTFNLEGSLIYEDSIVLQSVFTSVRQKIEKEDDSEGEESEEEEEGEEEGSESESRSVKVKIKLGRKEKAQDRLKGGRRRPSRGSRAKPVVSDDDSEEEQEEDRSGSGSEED
T2 sequence (P51531 whole entry): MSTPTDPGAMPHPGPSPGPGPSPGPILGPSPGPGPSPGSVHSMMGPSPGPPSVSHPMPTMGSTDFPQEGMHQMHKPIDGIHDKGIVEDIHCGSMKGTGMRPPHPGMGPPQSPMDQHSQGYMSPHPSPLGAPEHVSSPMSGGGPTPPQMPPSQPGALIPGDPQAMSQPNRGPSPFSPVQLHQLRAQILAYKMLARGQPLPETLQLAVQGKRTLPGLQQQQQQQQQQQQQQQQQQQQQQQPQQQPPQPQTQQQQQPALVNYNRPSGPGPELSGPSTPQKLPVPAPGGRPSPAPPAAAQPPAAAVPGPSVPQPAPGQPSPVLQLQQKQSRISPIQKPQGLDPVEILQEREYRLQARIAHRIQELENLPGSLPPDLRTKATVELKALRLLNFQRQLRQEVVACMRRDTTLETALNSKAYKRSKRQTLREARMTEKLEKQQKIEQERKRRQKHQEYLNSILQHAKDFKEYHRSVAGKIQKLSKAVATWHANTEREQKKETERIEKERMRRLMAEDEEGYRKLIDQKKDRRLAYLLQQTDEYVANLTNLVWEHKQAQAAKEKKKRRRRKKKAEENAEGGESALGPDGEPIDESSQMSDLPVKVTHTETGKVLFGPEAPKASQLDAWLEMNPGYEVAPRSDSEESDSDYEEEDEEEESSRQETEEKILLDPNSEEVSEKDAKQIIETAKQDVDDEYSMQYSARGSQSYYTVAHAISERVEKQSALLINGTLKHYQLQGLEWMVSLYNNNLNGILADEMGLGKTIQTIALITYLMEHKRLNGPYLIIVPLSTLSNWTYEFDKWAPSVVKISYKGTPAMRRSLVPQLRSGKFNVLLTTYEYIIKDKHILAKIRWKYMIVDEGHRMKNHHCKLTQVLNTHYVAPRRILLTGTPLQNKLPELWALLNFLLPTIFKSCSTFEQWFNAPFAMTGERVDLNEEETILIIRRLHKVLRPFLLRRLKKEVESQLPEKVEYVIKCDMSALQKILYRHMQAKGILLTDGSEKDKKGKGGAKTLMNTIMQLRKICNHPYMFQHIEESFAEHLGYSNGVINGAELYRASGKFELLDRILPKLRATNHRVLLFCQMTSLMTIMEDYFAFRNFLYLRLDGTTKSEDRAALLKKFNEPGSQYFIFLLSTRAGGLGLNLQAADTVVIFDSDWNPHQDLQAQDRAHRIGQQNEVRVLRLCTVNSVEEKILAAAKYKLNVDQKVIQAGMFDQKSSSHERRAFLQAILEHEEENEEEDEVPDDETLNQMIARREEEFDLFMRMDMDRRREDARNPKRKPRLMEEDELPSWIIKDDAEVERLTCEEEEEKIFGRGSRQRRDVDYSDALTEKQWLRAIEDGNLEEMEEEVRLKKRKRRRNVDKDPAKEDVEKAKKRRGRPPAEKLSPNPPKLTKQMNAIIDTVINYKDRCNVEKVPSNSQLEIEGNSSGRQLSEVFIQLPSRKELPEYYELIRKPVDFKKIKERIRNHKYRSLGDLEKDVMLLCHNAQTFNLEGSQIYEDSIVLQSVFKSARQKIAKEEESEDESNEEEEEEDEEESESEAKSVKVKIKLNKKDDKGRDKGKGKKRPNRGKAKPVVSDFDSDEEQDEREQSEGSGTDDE

In the case of `COc1cc(O[C@@H]2C[C@@H]3CNc4nnc(-c5cc(F)cc(F)c5O)cc4N3C2)ccc1CN1CCN(c2ccc3c(c2)C(=O)N(C2CCC(=O)NC2=O)C3)CC1` (stereo partly drawn) [Example 12, 3-(6-(4-(4-(((6aR,8R)-2-(3,5-difluoro-2-hydroxyphenyl)-5,6,6a,7,8,9-hexahydropyrrolo[1′,2′:4,5]pyrazino[2,3-c]pyridazin-8-yl)oxy)-2-methoxybenzyl)piperazin-1-yl)-1-oxoisoindolin-2-yl)piperidine-2,6-dione], the DC50 in assay [1] and in assay [2] was below 100 nM each time. In addition, the Dmax in assay [1] and in assay [2] was above 75% each time.

In the case of `O=C1CCC(N2Cc3ccc(N4CCN(Cc5ccc(O[C@@H]6C[C@@H]7CNc8nnc(-c9cc(F)cc(F)c9O)cc8N7C6)cc5F)CC4)cc3C2=O)C(=O)N1` (stereo partly drawn) [Example 13, 3-(6-(4-(4-(((6aR,8R)-2-(3,5-difluoro-2-hydroxyphenyl)-5,6,6a,7,8,9-hexahydropyrrolo[1′,2′:4,5]pyrazino[2,3-c]pyridazin-8-yl)oxy)-2-fluorobenzyl)piperazin-1-yl)-1-oxoisoindolin-2-yl)piperidine-2,6-dione], in assay [1], the DC50 was below 100 nM and the Dmax was above 75%. For the same compound, in assay [2], the DC50 is below 100 nM and the Dmax is above 75%.

As to `CC(C)c1cc(CN2CCN(c3ccc4c(c3)C(=O)N(C3CCC(=O)NC3=O)C4)CC2)ccc1O[C@@H]1C[C@@H]2CNc3nnc(-c4cc(F)cc(F)c4O)cc3N2C1` (stereo partly drawn) [Example 14, 3-(6-(4-(4-(((6aR,8R)-2-(3,5-difluoro-2-hydroxyphenyl)-5,6,6a,7,8,9-hexahydropyrrolo[1′,2′:4,5]pyrazino[2,3-c]pyridazin-8-yl)oxy)-3-isopropylbenzyl)piperazin-1-yl)-1-oxoisoindolin-2-yl)piperidine-2,6-dione], the DC50 in assay [1] and in assay [2] was below 100 nM throughout. Further, the greatest degradation seen (Dmax) in assay [1] and in assay [2] was above 75% in each case.

With `O=C1CCC(N2Cc3ccc(N4CCN(Cc5ccc(O[C@@H]6C[C@@H]7CNc8nnc(-c9cc(F)cc(F)c9O)cc8N7C6)cc5C(F)(F)F)CC4)cc3C2=O)C(=O)N1` (stereo partly drawn) [Example 15, 3-(6-(4-(4-(((6aR,8R)-2-(3,5-difluoro-2-hydroxyphenyl)-5,6,6a,7,8,9-hexahydropyrrolo[1′,2′:4,5]pyrazino[2,3-c]pyridazin-8-yl)oxy)-2-(trifluoromethyl)benzyl)piperazin-1-yl)-1-oxoisoindolin-2-yl)piperidine-2,6-dione], in assay [1], the DC50 is above 1000 nM and the Dmax lay within 50 to 75%. In assay [2], this compound registered a DC50 below 100 nM and a Dmax above 75%.

`CC(C)c1cc(O[C@@H]2C[C@@H]3CNc4nnc(-c5cc(F)cc(F)c5O)cc4N3C2)ccc1CN1CCN(c2ccc3c(c2)C(=O)N(C2CCC(=O)NC2=O)C3)CC1` (stereo partly drawn) [Example 16, 3-(6-(4-(4-(((6aR,8R)-2-(3,5-difluoro-2-hydroxyphenyl)-5,6,6a,7,8,9-hexahydropyrrolo[1′,2′:4,5]pyrazino[2,3-c]pyridazin-8-yl)oxy)-2-isopropylbenzyl)piperazin-1-yl)-1-oxoisoindolin-2-yl)piperidine-2,6-dione]: in assay [1], the DC50 was below 100 nM and the maximal degradation (Dmax) lay in the range of 50 to 75%. In assay [2], this compound had a DC50 below 100 nM and a Dmax of 50 to 75%.

On to `Cc1cc(O[C@@H]2C[C@@H]3CNc4nnc(-c5cc(F)cc(F)c5O)cc4N3C2)cc(C)c1CN1CCN(c2ccc3c(c2)C(=O)N(C2CCC(=O)NC2=O)C3)CC1` (stereo partly drawn) [Example 17, 3-(6-(4-(4-(((6aR,8R)-2-(3,5-difluoro-2-hydroxyphenyl)-5,6,6a,7,8,9-hexahydropyrrolo[1′,2′:4,5]pyrazino[2,3-c]pyridazin-8-yl)oxy)-2,6-dimethylbenzyl)piperazin-1-yl)-1-oxoisoindolin-2-yl)piperidine-2,6-dione], for which, in assay [1], the half-maximal degradation concentration (DC50) is above 1000 nM and the Dmax was below 50%. In assay [2], the DC50 was below 100 nM and the Dmax is above 75%.

In assay [1], `Cc1c(CN2CCN(c3ccc4c(c3)C(=O)N(C3CCC(=O)NC3=O)C4)CC2)ccc(O[C@@H]2C[C@@H]3CNc4nnc(-c5cc(F)cc(F)c5O)cc4N3C2)c1C` (stereo partly drawn) [Example 18, 3-(6-(4-(4-(((6aR,8R)-2-(3,5-difluoro-2-hydroxyphenyl)-5,6,6a,7,8,9-hexahydropyrrolo[1′,2′:4,5]pyrazino[2,3-c]pyridazin-8-yl)oxy)-2,3-dimethylbenzyl)piperazin-1-yl)-1-oxoisoindolin-2-yl)piperidine-2,6-dione] yielded a DC50 below 100 nM and a Dmax above 75%. In assay [2], this compound registered a DC50 below 100 nM and a maximal degradation (Dmax) above 75%.

Regarding `Cc1cc(O[C@@H]2C[C@@H]3CNc4nnc(-c5cc(F)cc(Cl)c5O)cc4N3C2)ccc1CN1CCN(c2ccc3c(c2)C(=O)N(C2CCC(=O)NC2=O)C3)CC1` (stereo partly drawn) [Example 19, 3-(6-(4-(4-(((6aR,8R)-2-(3-chloro-5-fluoro-2-hydroxyphenyl)-5,6,6a,7,8,9-hexahydropyrrolo[1′,2′:4,5]pyrazino[2,3-c]pyridazin-8-yl)oxy)-2-methylbenzyl)piperazin-1-yl)-1-oxoisoindolin-2-yl)piperidine-2,6-dione], in assay [1], the DC50 was below 100 nM and the Dmax is 50 to 75%. In assay [2], this compound had a DC50 below 100 nM and a Dmax above 75%.

In assay [1], `Cc1cc(O[C@@H]2C[C@@H]3CNc4nnc(-c5cccc(C)c5O)cc4N3C2)ccc1CN1CCN(c2ccc3c(c2)C(=O)N(C2CCC(=O)NC2=O)C3)CC1` (stereo partly drawn) [Example 20, 3-(6-(4-(4-(((6aR,8R)-2-(2-hydroxy-3-methylphenyl)-5,6,6a,7,8,9-hexahydropyrrolo[1′,2′:4,5]pyrazino[2,3-c]pyridazin-8-yl)oxy)-2-methylbenzyl)piperazin-1-yl)-1-oxoisoindolin-2-yl)piperidine-2,6-dione] registered a DC50 above 1000 nM and a Dmax below 50%. In assay [2], this compound displayed a DC50 below 100 nM and a Dmax above 75%.

As for `COc1cc(O[C@@H]2C[C@@H]3CNc4nnc(-c5cccc(Cl)c5O)cc4N3C2)ccc1CN1CCN(c2ccc3c(c2)C(=O)N(C2CCC(=O)NC2=O)C3)CC1` (stereo partly drawn) [Example 21, 3-(6-(4-(4-(((6aR,8R)-2-(3-chloro-2-hydroxyphenyl)-5,6,6a,7,8,9-hexahydropyrrolo[1′,2′:4,5]pyrazino[2,3-c]pyridazin-8-yl)oxy)-2-methoxybenzyl)piperazin-1-yl)-1-oxoisoindolin-2-yl)piperidine-2,6-dione], in assay [1], the DC50 is below 100 nM and the Dmax is above 75%. In assay [2], the DC50 is below 100 nM and the Dmax is above 75%.

As for `O=C1CCC(N2Cc3ccc(N4CCN(Cc5ccc(O[C@@H]6C[C@@H]7CNc8nnc(-c9cc(F)cc(Cl)c9O)cc8N7C6)cc5)CC4)cc3C2=O)C(=O)N1` (stereo partly drawn) [Example 22, 3-(6-(4-(4-(((6aR,8R)-2-(3-chloro-5-fluoro-2-hydroxyphenyl)-5,6,6a,7,8,9-hexahydropyrrolo[1′,2′:4,5]pyrazino[2,3-c]pyridazin-8-yl)oxy)benzyl)piperazin-1-yl)-1-oxoisoindolin-2-yl)piperidine-2,6-dione], in assay [1], the DC50 was below 100 nM and the Dmax was above 75%. In assay [2], this compound came in with a DC50 below 100 nM and a Dmax above 75%.

As a reminder, the DC50 is the midpoint of the concentration-degradation curve. A high value points to degradation only at high concentration. In general, Dmax refers to the largest share of the target that was removed. A high value points to deep degradation.
